Patent publication US11246907B2, “Immunosuppressive agents and their use in therapy” (Norwegian University of Science and Technology, priority 2013, dated 2022)

Legend:
monocytes = assay: Annexin staining / flow cytometry of monocytes (apoptosis); format: cell-based, human; conditions: 4 hours, monocytes
Protocol: Annexin staining was used to determine cell viability and cells were counted using flow cytometry.
Peripheral blood […] were isolated from A+ buffy coats (Blood Bank, St. Olav's University Hospital) by density gradient centrifugation (Lymphoprep; Axis-Shield PoC, Oslo, Norway). The adherent cell fraction after 90 minute incubation, termed monocytes, were washed twice with HANKS and maintained in RPMI 1640 supplemented with 2 mM glutamine, […] gentamicin and 25% heat-inactivated HS over-night. Cells were cultured at 37° C. in a humidified atmosphere of 5% CO2 over-night. […] An R11 peptide and no peptide treatment were used as controls. After 4 hours, the cells were washed once in PBS, and re-suspended in buffer as recommended by the manufacturer of the Annexin V-Pacific Blue kit (Invitrogen). Cells were identified monocytes according to size (FSC) and granularity (SSC).

[1] = test system: peripheral blood monocytes; assay: Multiplex (27-plex) cytokine secretion of TLR-ligand stimulated peripheral blood monocytes; format: cell-based, human; conditions: LPS or polyIC, 4 h; ATX-101 4 μM, SB203580 10 μM, LY294002 5 and 10 μM, SC66 1 μg/ml
Protocol: Measured cytokine levels were normalized to cytokine levels from monocytes stimulated with TLR ligand alone. A two fold or higher increase in cytokine level after TLR stimulation was defined as cytokine induction. […] Isolated monocytes were stimulated with 10 ng/ml LPS and 40 μg/ml polyIC alone and in combination with 4 μM ATX-101 for 4 h. […] DRAQS was used for nuclear staining. Bar, 5 μm.
Data is from one representative donor out of three; and (B-E) show multiplex analysis of cytokine levels produced by peripheral blood monocytes stimulated with 10 ng/ml LPS (B and D, same donor) and 40 μg/ml polyIC (C and E, same donor) after 4 h. (B and C) Stimulated-monocytes were treated with 4 μM ATX-101, 10 μM SB203580 (p38 MAPK inhibitor), and combination of ATX-101 and SB203580. (D and E) Stimulated-monocytes were treated with 4 μM ATX-101, 5 and 10 μM LY294002 (PI3K class I inhibitor), and combination of ATX-101 and LY294002. Measured cytokine levels were normalized to cytokine levels from monocytes stimulated with TLR ligand alone. A two fold or higher increase in cytokine level after TLR stimulation was defined as cytokine induction. # Value is too low to be visible in the column diagram; ? cytokine measurement was out of range. Data is from representative experiments out of two.
Measured cytokine levels were normalized to cytokine levels from monocytes stimulated with TLR ligand alone. A two fold or higher increase in cytokine level after TLR stimulation was defined as cytokine induction. ? Cytokine measurement was out of range. Data is from one experiment out of two.
Measured cytokine levels were normalized to cytokine levels from monocytes stimulated with TLR ligand alone. Data is from one donor. We obtained similar results for IL-6 secretion in two other donors.
Measured cytokine levels were normalized to cytokine levels from monocytes stimulated with TLR ligand alone. A two fold or higher increase in cytokine level after TLR stimulation was defined as cytokine induction. # Value is too low to be visible in the column diagram; 0 Cytokine measurement was out of range. Data is from one experiment out of two.
Peripheral blood mononuclear cells were isolated from A+ buffy coats (Blood Bank, St. Olav's University Hospital, Trondheim, Norway) by density gradient centrifugation (Lymphoprep; Axis-Shield PoC, Oslo, Norway). Mononucleated cells were seeded at 4 million cells/ml in serum-free RPMI 1640 supplemented with glutamine and gentamicin. After 60-90 min the adherent cell population was washed before cultured in medium with 10% heat-inactivated human serum (Blood Bank, St. Olav's University Hospital). ATX-101 (4 μM [Innovagen, Lund, Sweden]), ATX-A (4 μM, [Innovagen]) (ATX-A is represented in SEQ ID NO: 1206 and contains the motif RALVK (SEQ ID NO: 1207), which is not capable of interacting with PCNA), p38 inhibitor (SB203580, 10 μM, [Sigma-Aldrich]), PI3K inhibitor (LY294002, 5 and 10 μM, [Sigma-Aldrich]), and Akt inhibitor (Akt inhibitor XVIII SC66, 1 μg/ml, [Sigma-Aldrich]) were added in serum-free medium and incubated for 5 min before LPS (10 ng/ml, [Sigma-Aldrich]), polylC (40 μg/ml, [GE Healthcare, Little Chalfont, UK]), PAM3Cys (10 ng/ml, [Invivogen, San Diego, Calif., USA]) or R848 (10 μg/ml, [Invivogen]) were added in serum-containing medium. The cells were incubated for 4 h before the supernatants were harvested and frozen prior to further cytokine analysis by the 27-plex assay (Bio-Plex ProTM Human cytokine 27-plex assay).

`CC[C@H](C)[C@H](NC(=O)[C@H](CCCCN)NC(=O)[C@H](CCCNC(=N)N)NC(=O)[C@H](CCCCN)NC(=O)[C@H](CCCCN)NC(=O)[C@H](CCCCN)NC(=O)[C@H](Cc1c[nH]c2ccccc12)NC(=O)[C@@H]1CCCN1C(=O)[C@@H](NC(=O)[C@H](CC(C)C)NC(=O)[C@H](Cc1c[nH]c2ccccc12)NC(=O)[C@H](CCCNC(=N)N)NC(=O)[C@H](CC(=O)O)NC(=O)[C@@H](N)CCSC)C(C)C)C(=O)N[C@@H](CCCNC(=N)N)C(=O)N[C@@H](CCCNC(=N)N)C(=O)N[C@@H](CCCNC(=N)N)C(=O)N[C@@H](CCCNC(=N)N)C(=O)N[C@@H](CCCNC(=N)N)C(=O)N[C@@H](CCCNC(=N)N)C(=O)N[C@@H](CCCNC(=N)N)C(=O)N[C@@H](CCCNC(=N)N)C(=O)N[C@@H](CCCNC(=N)N)C(=O)N[C@@H](CCCNC(=N)N)C(=O)N[C@@H](CCCNC(=N)N)C(=O)O` [ATX-P] was tested, and the “Percentage of annexin positive cells” value (monocytes; 5μM peptide treatment) was 65% and the “Percentage of annexin positive cells” value (monocytes; 10 μM peptide treatment) was 81%.

For `N=C(N)NCCC[C@H](NC(=O)[C@H](CCCNC(=N)N)NC(=O)[C@H](CCCNC(=N)N)NC(=O)[C@H](CCCNC(=N)N)NC(=O)[C@H](CCCNC(=N)N)NC(=O)[C@H](CCCNC(=N)N)NC(=O)[C@H](CCCNC(=N)N)NC(=O)[C@H](CCCNC(=N)N)NC(=O)[C@H](CCCNC(=N)N)NC(=O)[C@H](CCCNC(=N)N)NC(=O)[C@@H](N)CCCNC(=N)N)C(=O)O` [R11, reference compound], the “Percentage of annexin positive cells” value (monocytes; 5μM peptide treatment) was 55% and the “Percentage of annexin positive cells” value (monocytes; 10 μM peptide treatment) was 56%.

For `C[S+]([O-])c1ccc(-c2nc(-c3ccncc3)c(-c3ccc(F)cc3)[nH]2)cc1` (stereo not drawn) [SB203580, reference compound], the “cytokine secretion from stimulated monocytes, single agent” value [1] was “reduced cytokine secretion”.

In the case of `O=C1/C(=C/c2ccncc2)CCC/C1=C\c1ccncc1` [SC66, reference compound], the “cytokine secretion from stimulated monocytes, single agent” value [1] is reported as “reduces cytokine secretion of monocytes to or below the basal levels”.
